Reference: ChEMBL document CHEMBL1201862, “PubChem BioAssay data set” (2004)
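Step 1: Grow cells in 96-well plates. Step 2: Expose to compound for 48 hours at 5 concentrations. Step 3: Interpolate endpoints linearly; if unreached, use highest concentration. Abbreviation: GI50, concentration required for 50% inhibition of growth.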 Activity calls are given as the source filed them. No stated cut-off is given here; in the data, active = GI50 up to about 1.1 µM and inactive = higher.

Columns and labels:
Assay in all cases: inhibition of tumour cell growth, NCI panel, 48 h
SK-MEL-2 = system: SK-MEL-2
RXF 393 = system: RXF 393
UACC-62 = system: UACC-62
KM12 = system: KM12
RPMI-8226 = system: RPMI-8226
COLO 205 = system: COLO 205
SK-OV-3 = system: SK-OV-3
UACC-257 = system: UACC-257
NCI-H23 = system: NCI-H23
IGROV-1 = system: IGROV-1
DMS-114 = system: DMS-114
M14 = system: M14
K562 = system: K562
HL-60 = system: HL-60
CCRF-CEM = system: CCRF-CEM
SK-MEL-28 = system: SK-MEL-28
KM-20L2 = system: KM-20L2
SF-295 = system: SF-295
SNB-78 = system: SNB-78
U-251 = system: U-251
OVCAR-4 = system: OVCAR-4
MOLT-4 = system: MOLT-4
HOP-62 = system: HOP-62
ACHN = system: ACHN
A498 = system: A498
SNB-75 = system: SNB-75
Malme-3M = system: Malme-3M
NCI-H460 = system: NCI-H460
OVCAR-5 = system: OVCAR-5
UO-31 = system: UO-31
HT-29 = system: HT-29
M19-MEL = system: M19-MEL
LXFL 529 = system: LXFL 529
SNB-19 = system: SNB-19
SR = system: SR
HOP-92 = system: HOP-92
SF-268 = system: SF-268
OVCAR-3 = system: OVCAR-3
NCI-H522 = system: NCI-H522
HCT-116 = system: HCT-116
SW-620 = system: SW-620
MDA-N = system: MDA-N
OVCAR-8 = system: OVCAR-8
LOX IMVI = system: LOX IMVI
MDA-MB-231 = system: MDA-MB-231
Hs-578T = system: Hs-578T
DU-145 = system: DU-145
TK-10 = system: TK-10
T47D = system: T47D
MCF7 = system: MCF7
SN12C = system: SN12C
CAKI-1 = system: CAKI-1
HCT-15 = system: HCT-15
A549 = system: A549
SF-539 = system: SF-539
EKVX = system: EKVX
NCI/ADR-RES = system: NCI/ADR-RES
SK-MEL-5 = system: SK-MEL-5
786-0 = system: 786-0
MDA-MB-435 = system: MDA-MB-435
NCI-H226 = system: NCI-H226
HCC 2998 = system: HCC 2998
BT-549 = system: BT-549
PC-3 = system: PC-3
DLD-1 = system: DLD-1
DMS-273 = system: DMS-273

Measured: GI50

CCO[C@@H]1OC(=O)[C@@](C)(C(C)=O)[C@@H]1C
inactive: SK-MEL-2 20.4 µM | RXF 393 24.1 µM | UACC-62 20.9 µM | KM12 28.4 µM | RPMI-8226 18.7 µM | COLO 205 87.7 µM | SK-OV-3 43.6 µM | UACC-257 24.4 µM | NCI-H23 14.5 µM | IGROV-1 36.5 µM | DMS-114 19.1 µM | M14 26 µM | K562 30.5 µM | HL-60 23 µM | CCRF-CEM 13 µM | SK-MEL-28 15.7 µM | KM-20L2 41.4 µM | SF-295 20.1 µM | SNB-78 25 µM | U-251 21 µM | OVCAR-4 29 µM | MOLT-4 19.2 µM | HOP-62 20.8 µM | ACHN > 100 µM | A498 > 100 µM | SNB-75 3.27 µM | Malme-3M 23.3 µM | NCI-H460 > 100 µM | OVCAR-5 60 µM | UO-31 37.9 µM | HT-29 17.5 µM | M19-MEL 19.1 µM | LXFL 529 19.5 µM | SNB-19 19.1 µM | SR 25.5 µM | HOP-92 26.1 µM | SF-268 18.3 µM | OVCAR-3 14.4 µM | NCI-H522 > 100 µM

Oc1ccc(Cl)cc1-c1cc(-c2ccccc2)nc(NCN2CCCCC2)n1
inactive: SK-MEL-2 > 100 µM | RXF 393 > 100 µM | UACC-62 > 100 µM | HCT-116 6.68 µM | RPMI-8226 > 100 µM | COLO 205 > 100 µM | SW-620 > 100 µM | SK-OV-3 > 100 µM | UACC-257 > 100 µM | NCI-H23 72.1 µM | IGROV-1 > 100 µM | MDA-N > 100 µM | M14 > 100 µM | K562 > 100 µM | HL-60 > 100 µM | OVCAR-8 > 100 µM | LOX IMVI > 100 µM | SK-MEL-28 > 100 µM | MDA-MB-231 > 100 µM | Hs-578T > 100 µM | U-251 > 100 µM | OVCAR-4 > 100 µM | DU-145 > 100 µM | MOLT-4 > 100 µM | HOP-62 > 100 µM | TK-10 > 100 µM | T47D > 100 µM | MCF7 2.78 µM | SN12C > 100 µM | ACHN 24.2 µM | CAKI-1 8.81 µM | A549 > 100 µM | SF-539 > 100 µM | EKVX > 100 µM | A498 > 100 µM | SNB-75 > 100 µM | Malme-3M > 100 µM | NCI-H460 > 100 µM | OVCAR-5 > 100 µM | NCI/ADR-RES > 100 µM | SK-MEL-5 15.8 µM | UO-31 > 100 µM | HT-29 > 100 µM | 786-0 > 100 µM | MDA-MB-435 > 100 µM | HCC 2998 > 100 µM | BT-549 > 100 µM | SNB-19 > 100 µM | PC-3 > 100 µM | SR 4.19 µM | HOP-92 > 100 µM | SF-268 7.14 µM | OVCAR-3 > 100 µM | NCI-H522 > 100 µM
active: KM12 0.78 µM | NCI-H226 0.838 µM
5.02 µM: HCT-15

OC1=CN=C(C2CC2)Oc2ccccc21
> 100 µM: HCT-15
inactive: SK-MEL-2 > 100 µM | RXF 393 > 100 µM | UACC-62 98.6 µM | HCT-116 > 100 µM | KM12 > 100 µM | RPMI-8226 > 100 µM | COLO 205 > 100 µM | SW-620 > 100 µM | SK-OV-3 > 100 µM | UACC-257 > 100 µM | NCI-H23 > 100 µM | IGROV-1 > 100 µM | DMS-114 41 µM | M14 > 100 µM | K562 84.9 µM | DLD-1 > 100 µM | HL-60 > 100 µM | CCRF-CEM > 100 µM | OVCAR-8 > 100 µM | LOX IMVI > 100 µM | SK-MEL-28 > 100 µM | KM-20L2 > 100 µM | SF-295 83.2 µM | SNB-78 > 100 µM | U-251 > 100 µM | OVCAR-4 85.3 µM | MOLT-4 > 100 µM | HOP-62 > 100 µM | TK-10 > 100 µM | SN12C > 100 µM | ACHN > 100 µM | A549 > 100 µM | SF-539 > 100 µM | EKVX > 100 µM | A498 > 100 µM | SNB-75 > 100 µM | Malme-3M > 100 µM | NCI-H460 > 100 µM | SK-MEL-5 > 100 µM | UO-31 25.7 µM | HT-29 > 100 µM | 786-0 > 100 µM | M19-MEL > 100 µM | LXFL 529 > 100 µM | DMS-273 > 100 µM | NCI-H226 15.5 µM | HCC 2998 > 100 µM | SNB-19 > 100 µM | HOP-92 96.2 µM | SF-268 > 100 µM | OVCAR-3 > 100 µM
